From ChEMBL document CHEMBL1131992, “Bifunctional 2-naphthyl propargylic sulfones exhibiting high DNA intercalating and alkylating activity” (Bioorg Med Chem Lett, 1999) come the findings set out here.

One test has as its system Nucleic Acid. The test is described as follows: DNA cleavage activity as 70% FormI DNA cleavage. Type of test: nucleic-acid assay.
The test system of a further test is P388. The test is described as follows: Cytotoxicity against P388 cell line(mouse T cell leukemia). In kind it is functional, cell-based.

`O=S(=O)(CC#CCCCC#CCO)c1ccccc1` gave a C70 in the test on Nucleic Acid of 1000 µM. The term IC50 denotes the concentration that inhibits the measured activity by half. A low value points to inhibition by little substance. In the test with P388, `O=C(OCC#CCCCC#CCS(=O)(=O)c1ccc2ccccc2c1)c1ccc2c(c1)C(=O)c1ccccc1C2=O` displayed an IC50 of 41 µM. Turning to `CCCC(O)C#CCS(=O)(=O)c1ccc2ccccc2c1` (stereo not drawn), the C70 in the test with Nucleic Acid amounted to 5 µM. Regarding `O=S(=O)(CC#CCCCC#CCO)c1ccc2ccccc2c1`, the C70 with Nucleic Acid worked out at 10 µM. The same compound yielded an IC50 with P388 of 10 µM. As for `CCCC(O)C#CCS(=O)(=O)c1ccccc1` (stereo not drawn), the C70 in the test on Nucleic Acid turned out to be 800 µM. Consider `O=C(OCC#CCCCC#CCS(=O)(=O)c1ccc2ccccc2c1)c1ccc2cc3ccccc3cc2c1`, for which, in the test with P388, the IC50 is 17 µM. In the test with P388, `O=C(OCC#CCCCC#CCS(=O)(=O)c1ccc2ccccc2c1)c1cccc2cc3ccccc3cc12` registered an IC50 of 42 µM.
